According to the NIST ThermoML archive (doi:10.1021/je901071x):

Experiment: xn = mol fraction of the nth substance listed
Conditions: 101 kPa, Liquid; for viscosity: Capillary tube (Ostwald / Ubbelohde) method; for mass density: Vibrating tube method

CCCOC=O [propyl methanoate] + CCCCc1ccccc1
Conditions | mass density, 303.15 K [kg/m3] | mass density, 308.15 K [kg/m3] | mass density, 313.15 K [kg/m3] | viscosity, 303.15 K [mPa·s] | viscosity, 308.15 K [mPa·s] | viscosity, 313.15 K [mPa·s]
x1 = 0.1483 | 854.7 | 851 | 847.3 | 0.823 | 0.772 | 0.723
x1 = 0.2855 | 858.4 | 854.6 | 850.7 | 0.753 | 0.71 | 0.667
x1 = 0.4066 | 862.2 | 858.2 | 854.3 | 0.696 | 0.658 | 0.619
x1 = 0.5164 | 866.2 | 862.1 | 858 | 0.649 | 0.616 | 0.58
x1 = 0.6148 | 870.3 | 866 | 861.8 | 0.609 | 0.579 | 0.546
x1 = 0.7042 | 874.5 | 870.1 | 865.8 | 0.575 | 0.547 | 0.517
x1 = 0.7884 | 879.1 | 874.5 | 869.9 | 0.545 | 0.52 | 0.491
x1 = 0.8642 | 883.8 | 879 | 874.2 | 0.519 | 0.497 | 0.47
x1 = 0.9339 | 888.6 | 883.7 | 878.7 | 0.498 | 0.476 | 0.451
x1 = 1 | 893.5 | 888.6 | 883.8 | 0.477 | 0.456 | 0.431

CCCOC=O [propyl methanoate] + c1ccccc1
Conditions | mass density, 303.15 K [kg/m3] | mass density, 308.15 K [kg/m3] | mass density, 313.15 K [kg/m3] | viscosity, 303.15 K [mPa·s] | viscosity, 308.15 K [mPa·s] | viscosity, 313.15 K [mPa·s]
x1 = 0.0918 | 869.6 | 865.1 | 860.6 | 0.54 | 0.512 | 0.479
x1 = 0.1874 | 871.4 | 866.8 | 862.3 | 0.518 | 0.49 | 0.462
x1 = 0.2822 | 873.6 | 868.9 | 864.3 | 0.504 | 0.476 | 0.448
x1 = 0.3785 | 875.8 | 871.1 | 866.5 | 0.49 | 0.466 | 0.437
x1 = 0.4767 | 878.2 | 873.4 | 868.7 | 0.48 | 0.456 | 0.431
x1 = 0.5772 | 880.6 | 875.8 | 871.1 | 0.474 | 0.449 | 0.425
x1 = 0.6802 | 883.4 | 878.5 | 873.7 | 0.471 | 0.451 | 0.426
x1 = 0.7854 | 886.2 | 881.3 | 876.5 | 0.469 | 0.448 | 0.423
x1 = 0.8924 | 889.4 | 884.4 | 879.5 | 0.467 | 0.446 | 0.421
x1 = 1 | 893.5 | 888.6 | 883.8 | 0.477 | 0.456 | 0.431
